Experiment [1] addresses T1, trypsin-like activity of human 20S proteasome (Homo sapiens, UniProt Q99436).
T1 construct: purchased Boston Biochem, Inc
The experiment is described as follows: Proteasome activity measurement, trypsin-like. The experiment is classed as biochemical. The following applies: for Ki: purified human 20S proteasome, Bz-Val-Gly-Arg-AMC, non-competitive. As to the method: (§1) Suc-Leu-Leu-Val-Tyr-AMC, Bz-Val-Gly-Arg-AMC and Z-Leu-Leu-Glu-AMC (Bachem, Bubendorf, Switzerland) were used for the chymotrypsin-like, trypsin-like and caspase-like activites, respectively. Assay buffer consisted of TE buffer (20 mM Tris (pH = 8.0), 0.5 mM EDTA, 0.03% SDS). Substrate hydrolysis was continuously monitored at 37°C with an automated microplate reader (Tecan Safire^2). Measured fluorescence values (RFU) were plotted versus time with nonlinear regression to fit a Michaelis-Menten plot.
(§2) For the Ki determination, 25 µL of substrate at three concentrations and 25 µL of inhibitor of interest also at three different concentrations were added to the wells of a white microplate. The reaction was initiated with 50 µL of the enzyme in the assay buffer. Flourescence of the AMC release was continuously monitored at 420 nm with 320 nm excitation.
(§3) Km and Ki were calculated using SigmaPlot 11 (Enzyme Kinetics Module 1.3) and are presented as the mean of three independent experiments.

Experiment [2] relates to human Burkitt’s lymphoma (Daudi). In words: Metabolic activity assay (MTS), Daudi. The experiment is classed as cell-based. The following applies: 50 µM, 24 h. The procedure:
(§4) Compounds 11, and 14–16 were further tested for selective cytotoxicity. The experiments were conducted on freshly isolated primary peripheral blood mononuclear cells (PBMC) and three other haematological cancers: human T cell leukaemia (Jurkat), human histiocytic lymphoma (U937) and human Burkitt’s lymphoma (Daudi). An MTS assay was performed following 24 h of treatment with the compound of interest at 50 µM. […] The inhibition of proliferation in Ramos cells, mediated with compounds 15 and 16, was concentration dependent.
(§5) Cells (1×10^5 cells/mL for Ramos, Daudi, U937 and Jurkat, and 1×10^6 cells/mL for PBMC) were treated with the appropriate amounts of compounds of interest or corresponding vehicle (control cells), then seeded in triplicate in 96 well plates. The metabolic activity was assessed using the CellTiter 96® Aqueous One Solution Cell Proliferation Assay (Promega, Madison/WI, USA), in accordance with the manufacturer’s instructions.

Experiment [3] deals with Ramos cells. In words: Annexin V/7-AAD assay. The experiment is classed as cell-based, human. The following applies: 16 h; for percentage of Annexin V positive cells: 50 µM, untreated 4% (Figure 5A). As to the method:
We used a PE Annexin V Apoptosis Detection Kit I (BD Biosciences) in accordance with the manufacturer’s instructions. Put briefly, Ramos cells were, following their treatment with the compound of interest, washed with cold PBS and resuspended in 1× binding buffer at a […] concentration. 100 µL of cell suspension was transferred to a 5 mL tube and 5 µL of both PE Annexin V and 7-AAD was added. The suspension was gently vortexed and incubated for 15 min at room temperature in the dark. Following this, 400 µL of 1× binding buffer was added and samples were analysed using a FACScalibur flow cytometer.

The test system of experiment [4] is Ramos cells. The experiment is described as follows: Cell cycle analysis (PI staining). The note with it: for cell cycle distribution / percentage of cells in the sub-G1 phase (< 2n): 50 µM, 24 h; for percentage of cells in the sub-G1 phase (< 2n): PI staining; for number of hypodiploid cells: 48 h treatment, untreated 3.4%. The format is cell-based, human. The procedure:
Ramos cells (5×10^5 cells) were treated with the compound of interest for 24 h. The cells were then washed with PBS and subjected to fixation with 80% ethanol at –20°C for 15 min. Fixated cells were pelleted by centrifugation and rehydrated in 5 mL of PBS for 15 min at room temperature. Collected cells were resuspended in 500 µL staining buffer (3 µM propidium iodide, 100 mM Tris, pH 7.4, 150 mM NaCl, 1 mM CaCl2, 0.5 mM MgCl2, 0.1% Nonident P-40). After 15 min of incubation, samples were analysed on a FACScalibur and evaluated using FlowJo software (BD bioscience, Franklin Lakes/NJ, USA).

The test system of experiment [5] is human histiocytic lymphoma (U937). In words: Metabolic activity assay (MTS), U937. The format is cell-based. The note with it: U937, 50 µM, 24 h. As to the method: as §4, §5
Experiment [6] addresses T2, caspase-like activity of human 20S proteasome (Homo sapiens, UniProt P28072).
T2 construct: purchased Boston Biochem, Inc
The experiment is described as follows: Proteasome activity measurement, caspase-like. The experiment is classed as biochemical. The note with it: purified human 20S proteasome, Z-Leu-Leu-Glu-AMC, uncompetitive. The procedure: as §1, §2, §3

The target of the next experiment is α-chymotrypsin (Bos taurus, UniProt P00766). The experiment is described as follows: α-Chymotrypsin inhibition assay.
In experiment [7] the test system is NFκB transcriptional activity in Ramos-Blue cells. In words: Quanti-blue assay, NFκB transcriptional activity (SEAP reporter). The format is cell-based, human. The following applies: 50 µM pretreatment 1 h, TNF-α 100 ng/mL, 8 h. The procedure: Ramos-Blue™ cells (Invivogen), which stably express an NF-κB/AP-1-inducible secreted embryonic alkaline phosphate (SEAP) reporter construct, were assayed for NFκB transcriptional activity changes upon pretreating them with the compound of interest (50 µM) for 1 h and subsequently stimulating them with recombinant TNF-α (100 ng/mL). SEAP activity was determined in the supernatant in accordance with the manufacturer’s instructions. Briefly, to 200 µL of QUANTI-Blue regent 20 µL of cell supernatant was added and incubated at 37°C for 3 h. Abosorbance was measured on microplate reader Tecan Safire^2 at 640 nm.

In experiment [8] the test system is procaspase-3 cleavage in Ramos cells. In words: Western blot analysis of caspase-3 processing. The experiment is classed as cell-based, human. The note with it: compound 50 µM, zVad-fmk 50 µM. The procedure: Ramos cells were seeded in 6-well culture plates at a concentration of 1×10^6 cells/mL and treated with the compound of interest or corresponding vehicle for 1 h, 2 h or 6 h. After the indicated time points, cells were harvested, washed in ice-cold PBS and lysed in modified RIPA buffer (50 mM Tris-HCl, pH 7.4, 150 mM NaCl, 1% NP−40, 0.25% Na-deoxycholate, 1 mM EDTA, 1 µg/mL aprotinin, 1 mM PMSF and 1× Halt Phosphatase inhibitor cocktail (Thermo Scientific, Pierce Biotechnology, IL, USA)). The lysates were sonicated, rocked on ice for 30 min and centrifuged at 13,000 rpm at 4°C for 15 min. Protein samples were electrophoresed in SDS-polyacrylamide gels and then transferred to nitrocellulose membranes. The primary antibodies used were against ubiquitin, phospho-IκBα, IκBα, p65 and caspase-3 (Cell Signaling, Danvers/MA, USA), and p105/p50 (Santa Cruz Biotechnology, Inc., Santa Cruz/CA, USA), and ß-actin (Sigma-Aldrich). Following incubation with the primary antibody, membranes were washed six times and incubated for 1 h at room temperature with the corresponding dilution of the appropriate secondary antibody conjugated with horseradish peroxidase (Upstate, Temecula, CA, USA). The immunoreactivity of respective proteins of interest was determined by chemiluminescence using the SuperSignal West Femto substrate (Pierce, IL, USA), in accordance with the manufacturer's instructions. […]
(Immunoblotting shows a protein as a band on a membrane.)

The target of the next experiment is Thrombin. Further details: method as in PMID 15497744, PMID 15544050, PMID 17484277. The note with it: amidolytic assay, chromogenic substrate; determined previously; cited from earlier work.
Setting [9] is: presence of zVADfmk 50 µM (Figure 5D).

Description for α-chymotrypsin: In short, a 1 nM solution of α-chymotrypsin was mixed with various concentrations of the substrate Suc-Ala-Ala-Pro-Phe-AMC. All the solutions were prepared in 144 mM Tris–HCl, pH 7.8. Substrate hydrolysis was monitored at 30°C on an automated Tecan Safire^2 microplate reader (Tecan, Mannedorf/Zürich, Switzerland). The initial rates of the reactions (ΔF/Δt) were measured immediately after the addition of the substrate (within 200 s) and plotted versus substrate concentration with nonlinear regression to fit a Michaelis-Menten plot. The curve fit and kinetic parameters (Km and v max) were calculated using GraphPad PRISM version 5.0 software (GraphPad Software, Inc., CA, USA). […] The initial velocities of the hydrolysis reactions were measured under the same conditions as described for the determination of Km. 50 µl of α-chymotrypsin solution was added to 50 µl of each inhibitor solution (prepared in 144 mM Tris–HCl, pH 7.8; final concentration 1 nM) and incubated at 30°C for 15 min. The reaction was initiated with the addition of 100 µl of substrate. […] The Ki values were determined as mean values of all measurements.

As for `N=C(N)N1CCC(CN(NS(=O)(=O)c2ccc3ccccc3c2)C(=O)N2CCCCCC2)CC1` [Compound 16], in [1] (SigmaPlot 11), the “mode of inhibition, trypsin-like activity” value is recorded as “non-competitive”. The inhibition constant (Ki) (in general, the equilibrium dissociation constant of an inhibitor or competing ligand from its target) in experiment [1] is 17 µM; at α-chymotrypsin, 28.7 µM; at Thrombin it was 0.5 µM. Besides, the “residual metabolic activity relative to control” value is “severe and selective decrease” in experiment [2]; “no or only moderate decreases” in [5]. Besides, the “percentage of Annexin V positive cells” value in the experiment on Ramos cells [3] is 39%. Moreover, the “Annexin V positive cells (lower right quadrant)” value was found to be 30% in the experiment with Ramos cells [3] (absence of zVADfmk (Figure 5D)) and 11% with Ramos cells [3] (setting [9]). Besides, the “living cells (lower left quadrant, Annexin V/7-AAD)” value in the experiment on Ramos cells [3] (absence of zVADfmk (Figure 5D)) turned out to be 62%; in the experiment on Ramos cells [3] (setting [9]), 82%. Further, the cell cycle distribution entry in the experiment with Ramos cells [4] was “accumulation of cells in the S phase”. Further, in the experiment on Ramos cells [4], the “percentage of cells in the sub-G1 phase (< 2n)” value was found to be 22.7%. In the experiment on Ramos cells [4], the “number of hypodiploid cells” value is on record as 51.1%. Moreover, the “Ki ' caspase-like activity” value in experiment [6] is listed as “Ki ' = 70±3 µM”. In addition, the “reduction of TNF-α-induced NFκB activity (SEAP)” value in experiment [7] is recorded as “over 60%”. The “compound-induced procaspase-3 cleavage after zVad-fmk pretreatment” value in experiment [8] was “completely blocked”.
For `N=C(N)N1CCC(CN(NS(=O)(=O)c2ccc3ccccc3c2)C(=O)N2CCCCC2)CC1` [Compound 15], the Ki in experiment [1] is 13 µM; on α-chymotrypsin it was 27.6 µM; at Thrombin, 0.47 µM. Also, the “residual metabolic activity relative to control” value in experiment [2] is “severe and selective decrease”; in experiment [5] it was “no or only moderate decreases”. In the experiment on Ramos cells [3], the “percentage of Annexin V positive cells” value worked out at 57%. The cell cycle distribution entry with Ramos cells [4] is given as “accumulation of cells in the S phase”. Besides, in the experiment on Ramos cells [4], the “percentage of cells in the sub-G1 phase (< 2n)” value was 8.7%. Besides, in the experiment with Ramos cells [4], the “number of hypodiploid cells” value is listed as 42.5%. Further, in experiment [6], the “Ki ' caspase-like activity” value was “Ki ' = 165±26 µM”. Further, the “reduction of TNF-α-induced NFκB activity (SEAP)” value in experiment [7] is “over 60%”. The “compound-induced procaspase-3 cleavage after zVad-fmk pretreatment” value in experiment [8] is recorded as “completely blocked”.

Source of the values: paper PMC3408433, “Selective Cytotoxicity of Amidinopiperidine Based Compounds Towards Burkitt’s Lymphoma Cells Involves Proteasome Inhibition” (PLoS ONE, 2012).
